US10456358B2, “Isoxazoline compositions and use thereof in the prevention or treatment of parasite infestations in animals” (Intervet Inc., priority 2013, dated 2019)

System: poultry red mite (Dermanyssus gallinae)
Experiment: Efficacy study: medicated drinking water against artificially induced poultry red mite infestations of laying hens
Assay type: in vivo
Experimental: Groups A-D (n=6) were treated with doses of 2, 1 and 0.5 mg fluralaner/kg BW once or 1 mg fluralaner/kg BW twice (0.5 mg/kg BW on 2 occasions).
Drinking water consumption in each was measured on three days prior to administration to calculate the average daily water consumption. Medicated water was prepared by diluting a fluralaner solution (10 mg/mL) as shown in the table below to the calculated fluralaner concentration.
On D0 (group D additionally on D7), the hens in groups A-D received fluralaner via medicated drinking water. Group E received un-medicated drinking water ad libitum.
The dose to be administered was calculated based on average body weights of each treatment group, obtained one day before treatment (D-1, D 6). A fluralaner stock solution was diluted in the drinking water to prepare medicated water ready for consumption.
The volume of medicated water offered per group on D0 (group D also on D7) was approximately 50% of the calculated mean daily water intake measured previously in the respective group in order to ensure consumption of the full dose.
Once all medicated water was consumed the other 50% volume of the mean daily water intake was supplied as tap water in the same drinker.
On Day 1, Day 5, Day 8, Day 12, D15, D19 and D22 four of six hens per group were infested with approximately 200 vital, D. gallinae mites (unfed nymphs and adults that starved before infestation for 7 days).
From each infested hen approximately 25 engorged mites were collected and incubated for approximately 24 hours. The dead, damaged and/or live mites were counted visually using a binocular.
Mites were classified as dead if no movement was determined or mites lay in a dorsal position. Mites were classified as damaged if their movement was uncoordinated.
The Mite Mortality and Mite Inhibition percentage was calculated for each treated group in comparison to a not-treated negative control group.

[1] = Group A, 2 mg/kg BW once (D0) via drinking water, laying hens, infestation on D1
[2] = Group A, 2 mg/kg BW once (D0) via drinking water, laying hens, infestation on D5
[3] = Group A, 2 mg/kg BW once (D0) via drinking water, laying hens, infestation on D8
[4] = Group A, 2 mg/kg BW once (D0) via drinking water, laying hens, infestation on D12
[5] = Group A, 2 mg/kg BW once (D0) via drinking water, laying hens, infestation on D15
[6] = Group A, 2 mg/kg BW once (D0) via drinking water, laying hens, infestation on D19
[7] = Group A, 2 mg/kg BW once (D0) via drinking water, laying hens, infestation on D22
[8] = Group B, 1 mg/kg BW once (D0) via drinking water, laying hens, infestation on D1
[9] = Group B, 1 mg/kg BW once (D0) via drinking water, laying hens, infestation on D5
[10] = Group B, 1 mg/kg BW once (D0) via drinking water, laying hens, infestation on D8
[11] = Group B, 1 mg/kg BW once (D0) via drinking water, laying hens, infestation on D12
[12] = Group B, 1 mg/kg BW once (D0) via drinking water, laying hens, infestation on D15
[13] = Group B, 1 mg/kg BW once (D0) via drinking water, laying hens, infestation on D19
[14] = Group B, 1 mg/kg BW once (D0) via drinking water, laying hens, infestation on D22
[15] = Group C, 0.5 mg/kg BW once (D0) via drinking water, laying hens, infestation on D1
[16] = Group C, 0.5 mg/kg BW once (D0) via drinking water, laying hens, infestation on D5
[17] = Group C, 0.5 mg/kg BW once (D0) via drinking water, laying hens, infestation on D8
[18] = Group C, 0.5 mg/kg BW once (D0) via drinking water, laying hens, infestation on D12
[19] = Group C, 0.5 mg/kg BW once (D0) via drinking water, laying hens, infestation on D15
[20] = Group C, 0.5 mg/kg BW once (D0) via drinking water, laying hens, infestation on D19
[21] = Group C, 0.5 mg/kg BW once (D0) via drinking water, laying hens, infestation on D22
[22] = Group D, 1 (2 × 0.5) mg/kg BW (D0 and D7) via drinking water, laying hens, infestation on D1
[23] = Group D, 1 (2 × 0.5) mg/kg BW (D0 and D7) via drinking water, laying hens, infestation on D5
[24] = Group D, 1 (2 × 0.5) mg/kg BW (D0 and D7) via drinking water, laying hens, infestation on D8
[25] = Group D, 1 (2 × 0.5) mg/kg BW (D0 and D7) via drinking water, laying hens, infestation on D12
[26] = Group D, 1 (2 × 0.5) mg/kg BW (D0 and D7) via drinking water, laying hens, infestation on D15
[27] = Group D, 1 (2 × 0.5) mg/kg BW (D0 and D7) via drinking water, laying hens, infestation on D19
[28] = Group D, 1 (2 × 0.5) mg/kg BW (D0 and D7) via drinking water, laying hens, infestation on D22

Cc1cc(C2=NOC(c3cc(Cl)cc(Cl)c3)(C(F)(F)F)C2)ccc1C(=O)NCC(=O)NCC(F)(F)F (stereo not shown) [fluralaner, 4-[5-(3,5-Dichlorophenyl)-5-trifluoromethyl-4,5-dihydroisoxazol-3-yl]-2-methyl-N-[(2,2,2-trifluoro-ethylcarbamoyl)-methyl]-benzamide]
% Inhibition of D. gallinae assessed 24 hours after infestation [1]: 100% | % Mortality of D. gallinae assessed 24 hours after infestation [1]: 100% | % Inhibition of D. gallinae assessed 24 hours after infestation [2]: 100% | % Mortality of D. gallinae assessed 24 hours after infestation [2]: 100% | % Inhibition of D. gallinae assessed 24 hours after infestation [3]: 100% | % Mortality of D. gallinae assessed 24 hours after infestation [3]: 100% | % Inhibition of D. gallinae assessed 24 hours after infestation [4]: 100% | % Mortality of D. gallinae assessed 24 hours after infestation [4]: 100% | % Inhibition of D. gallinae assessed 24 hours after infestation [5]: 81% | % Mortality of D. gallinae assessed 24 hours after infestation [5]: 77% | % Inhibition of D. gallinae assessed 24 hours after infestation [6]: 14% | % Mortality of D. gallinae assessed 24 hours after infestation [6]: 1% | % Inhibition of D. gallinae assessed 24 hours after infestation [7]: 0% | % Mortality of D. gallinae assessed 24 hours after infestation [7]: 0% | % Inhibition of D. gallinae assessed 24 hours after infestation [8]: 100% | % Mortality of D. gallinae assessed 24 hours after infestation [8]: 100% | % Inhibition of D. gallinae assessed 24 hours after infestation [9]: 100% | % Mortality of D. gallinae assessed 24 hours after infestation [9]: 100% | % Inhibition of D. gallinae assessed 24 hours after infestation [10]: 100% | % Mortality of D. gallinae assessed 24 hours after infestation [10]: 100% | % Inhibition of D. gallinae assessed 24 hours after infestation [11]: 95% | % Mortality of D. gallinae assessed 24 hours after infestation [11]: 94% | % Inhibition of D. gallinae assessed 24 hours after infestation [12]: 81% | % Mortality of D. gallinae assessed 24 hours after infestation [12]: 77% | % Inhibition of D. gallinae assessed 24 hours after infestation [13]: 3% | % Mortality of D. gallinae assessed 24 hours after infestation [13]: 2% | % Inhibition of D. gallinae assessed 24 hours after infestation [14]: 0% | % Mortality of D. gallinae assessed 24 hours after infestation [14]: 0% | % Inhibition of D. gallinae assessed 24 hours after infestation [15]: 100% | % Mortality of D. gallinae assessed 24 hours after infestation [15]: 100% | % Inhibition of D. gallinae assessed 24 hours after infestation [16]: 100% | % Mortality of D. gallinae assessed 24 hours after infestation [16]: 100% | % Inhibition of D. gallinae assessed 24 hours after infestation [17]: 100% | % Mortality of D. gallinae assessed 24 hours after infestation [17]: 97% | % Inhibition of D. gallinae assessed 24 hours after infestation [18]: 75% | % Mortality of D. gallinae assessed 24 hours after infestation [18]: 55% | % Inhibition of D. gallinae assessed 24 hours after infestation [19]: 19% | % Mortality of D. gallinae assessed 24 hours after infestation [19]: 15% | % Inhibition of D. gallinae assessed 24 hours after infestation [20]: 0% | % Mortality of D. gallinae assessed 24 hours after infestation [20]: 0% | % Inhibition of D. gallinae assessed 24 hours after infestation [21]: 0% | % Mortality of D. gallinae assessed 24 hours after infestation [21]: 0% | % Inhibition of D. gallinae assessed 24 hours after infestation [22]: 100% | % Mortality of D. gallinae assessed 24 hours after infestation [22]: 100% | % Inhibition of D. gallinae assessed 24 hours after infestation [23]: 100% | % Mortality of D. gallinae assessed 24 hours after infestation [23]: 100% | % Inhibition of D. gallinae assessed 24 hours after infestation [24]: 100% | % Mortality of D. gallinae assessed 24 hours after infestation [24]: 100% | % Inhibition of D. gallinae assessed 24 hours after infestation [25]: 100% | % Mortality of D. gallinae assessed 24 hours after infestation [25]: 100% | % Inhibition of D. gallinae assessed 24 hours after infestation [26]: 99% | % Mortality of D. gallinae assessed 24 hours after infestation [26]: 98% | % Inhibition of D. gallinae assessed 24 hours after infestation [27]: 66% | % Mortality of D. gallinae assessed 24 hours after infestation [27]: 59% | % Inhibition of D. gallinae assessed 24 hours after infestation [28]: 27% | % Mortality of D. gallinae assessed 24 hours after infestation [28]: 14% | onset of action (all administered doses, via drinking water, laying hens): fast onset of action | inhibition of red poultry mites (drinking water administration to poultry animals, for at least 15 days): 99%
